Laboratory results taken from ChEMBL document CHEMBL1155854, “Conformationally constrained farnesoid X receptor (FXR) agonists: Naphthoic acid-based analogs of GW 4064” (Bioorg Med Chem Lett, 2008).
Calls of active or inactive are those of the source. The calls are words filed in the database; no cut-off is given here.

How the values were obtained:
PXR = molecular target: T1, PXR (Homo sapiens, UniProt O75469); test: Agonist activity at PXR by SPA assay; type: functional
T1 sequence (O75469 whole entry): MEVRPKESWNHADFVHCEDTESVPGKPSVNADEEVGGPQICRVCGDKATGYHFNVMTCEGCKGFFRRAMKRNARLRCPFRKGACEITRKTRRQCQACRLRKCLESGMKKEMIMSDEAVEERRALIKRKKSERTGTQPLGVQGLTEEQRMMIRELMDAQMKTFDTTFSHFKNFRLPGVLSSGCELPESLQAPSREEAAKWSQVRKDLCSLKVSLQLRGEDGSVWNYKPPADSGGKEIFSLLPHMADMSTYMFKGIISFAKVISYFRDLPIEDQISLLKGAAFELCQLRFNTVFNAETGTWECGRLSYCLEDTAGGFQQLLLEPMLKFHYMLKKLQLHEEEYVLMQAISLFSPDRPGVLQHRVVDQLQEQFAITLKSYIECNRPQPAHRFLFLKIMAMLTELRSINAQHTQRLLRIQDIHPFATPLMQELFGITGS

Cytochrome P450 3A4 [1] = molecular target: T2, Cytochrome P450 3A4 (Homo sapiens, UniProt P08684); test: Inhibition of CYP3A4 in pooled human liver microsome using nifedipine substrate; type: ADME, microsomes
Cytochrome P450 3A4 [2] = molecular target: T2, Cytochrome P450 3A4; test: Inhibition of CYP3A4 in pooled human liver microsome using atrovastatin substrate; type: ADME, microsomes
Cytochrome P450 1A2 = molecular target: T3, Cytochrome P450 1A2 (Homo sapiens, UniProt P05177); test: Inhibition of CYP1A2 in pooled human liver microsome; type: ADME, microsomes
T3 sequence (P05177 whole entry): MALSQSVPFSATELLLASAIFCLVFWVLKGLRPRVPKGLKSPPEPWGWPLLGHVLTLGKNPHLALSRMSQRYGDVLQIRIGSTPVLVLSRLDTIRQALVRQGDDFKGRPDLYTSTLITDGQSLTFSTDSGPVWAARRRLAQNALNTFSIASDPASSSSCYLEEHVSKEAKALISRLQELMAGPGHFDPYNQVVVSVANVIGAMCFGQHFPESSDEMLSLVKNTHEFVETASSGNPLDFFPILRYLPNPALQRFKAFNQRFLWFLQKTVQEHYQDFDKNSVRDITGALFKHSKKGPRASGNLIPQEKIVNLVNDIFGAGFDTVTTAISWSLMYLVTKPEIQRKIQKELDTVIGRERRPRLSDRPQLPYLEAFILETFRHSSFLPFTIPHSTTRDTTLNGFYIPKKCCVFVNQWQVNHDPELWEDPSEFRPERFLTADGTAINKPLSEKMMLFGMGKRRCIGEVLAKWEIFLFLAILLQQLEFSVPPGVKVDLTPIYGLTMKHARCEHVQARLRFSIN

[3] = Volume of distribution at steady state in iv dosed mouse; type: ADME, organism-based; settings: in vivo, read-out: Vdss
[4] = Clearance in iv dosed rat; type: ADME, organism-based; settings: in vivo
[5] = Clearance in iv dosed cynomolgus monkey; type: ADME, organism-based, Macaca fascicularis; settings: in vivo
[6] = Volume of distribution at steady state in iv dosed cynomolgus monkey; type: ADME, organism-based, Macaca fascicularis; settings: in vivo, read-out: Vdss
Rattus norvegicus [7] = test: Reduction of serum alanine aminotransferase level in alpha-naphthyl-isothiocyanate-induced rat acute cholestasis model at 100 to 300 mg/kg, po bid for 4 days dosed before 2 days induction by alpha-naphthyl-isothiocyanate; type: functional, organism-based
Rattus norvegicus [8] = test: Reduction of serum gamma-glutamyl transferase level in alpha-naphthyl-isothiocyanate-induced rat acute cholestasis model at 100 to 300 mg/kg, po bid for 4 days dosed before 2 days induction by alpha-naphthyl-isothiocyanate; type: functional, organism-based
[9] = Half life in iv dosed mouse; type: ADME, organism-based; settings: in vivo
Bile acid receptor = molecular target: T4, Bile acid receptor (Homo sapiens, UniProt Q96RI1); test: Agonist activity at FXR expressed in african green monkey CV1 cells by luciferase reporter transient transfection assay; type: functional, cell-based, CV-1
T4 sequence (Q96RI1 whole entry): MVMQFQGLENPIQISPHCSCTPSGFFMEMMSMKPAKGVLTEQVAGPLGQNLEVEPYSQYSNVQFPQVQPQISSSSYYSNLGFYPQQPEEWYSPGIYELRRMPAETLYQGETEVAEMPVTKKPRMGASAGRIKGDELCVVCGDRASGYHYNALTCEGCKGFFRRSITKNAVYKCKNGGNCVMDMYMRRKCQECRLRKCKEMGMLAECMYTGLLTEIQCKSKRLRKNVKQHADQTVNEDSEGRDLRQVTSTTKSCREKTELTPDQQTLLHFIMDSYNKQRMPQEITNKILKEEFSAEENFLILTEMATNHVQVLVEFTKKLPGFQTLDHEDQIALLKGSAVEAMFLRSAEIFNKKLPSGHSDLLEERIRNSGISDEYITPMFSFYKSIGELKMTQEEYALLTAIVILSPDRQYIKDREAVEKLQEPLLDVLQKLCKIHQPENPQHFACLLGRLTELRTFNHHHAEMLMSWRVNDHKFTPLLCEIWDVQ

[10] = molecular target: T5, Peroxisome proliferator-activated receptor gamma (Homo sapiens, UniProt P37231); test: Agonist activity at PPARgamma by SPA assay; type: functional
T5 sequence (P37231 whole entry): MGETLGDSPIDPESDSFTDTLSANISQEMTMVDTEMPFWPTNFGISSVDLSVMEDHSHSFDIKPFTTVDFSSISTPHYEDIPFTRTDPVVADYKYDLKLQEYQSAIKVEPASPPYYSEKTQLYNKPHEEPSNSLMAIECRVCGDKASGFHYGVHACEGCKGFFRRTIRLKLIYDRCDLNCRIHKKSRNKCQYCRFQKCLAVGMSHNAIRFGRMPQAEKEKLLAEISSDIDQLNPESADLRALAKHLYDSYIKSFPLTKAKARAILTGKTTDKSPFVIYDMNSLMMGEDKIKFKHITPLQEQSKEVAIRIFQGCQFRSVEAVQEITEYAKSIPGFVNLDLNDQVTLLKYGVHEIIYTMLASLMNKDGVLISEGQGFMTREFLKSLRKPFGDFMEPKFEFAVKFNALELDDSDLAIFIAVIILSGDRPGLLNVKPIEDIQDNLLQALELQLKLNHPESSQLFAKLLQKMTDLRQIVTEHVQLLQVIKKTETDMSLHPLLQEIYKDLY

Rattus norvegicus [11] = test: Reduction of serum direct bilirubin level in alpha-naphthyl-isothiocyanate-induced rat acute cholestasis model at 100 to 300 mg/kg, po bid for 4 days dosed before 2 days induction by alpha-naphthyl-isothiocyanate; type: functional, organism-based

T2 sequence (P08684 whole entry): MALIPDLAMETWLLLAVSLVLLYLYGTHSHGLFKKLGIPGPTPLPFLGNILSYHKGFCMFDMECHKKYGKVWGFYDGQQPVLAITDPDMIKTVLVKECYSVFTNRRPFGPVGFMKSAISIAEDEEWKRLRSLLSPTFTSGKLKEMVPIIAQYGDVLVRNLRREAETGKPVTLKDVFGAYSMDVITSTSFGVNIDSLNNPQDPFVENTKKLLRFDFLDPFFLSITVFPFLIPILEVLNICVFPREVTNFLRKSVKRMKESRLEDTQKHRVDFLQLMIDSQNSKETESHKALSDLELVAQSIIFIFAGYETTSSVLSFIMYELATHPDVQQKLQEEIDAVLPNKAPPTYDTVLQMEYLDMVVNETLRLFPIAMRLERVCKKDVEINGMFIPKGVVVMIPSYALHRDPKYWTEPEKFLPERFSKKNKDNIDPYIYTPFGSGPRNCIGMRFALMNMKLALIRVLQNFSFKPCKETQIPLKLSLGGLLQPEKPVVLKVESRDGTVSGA

XC50 (PXR): 3.1 µM
IC50 (Cytochrome P450 3A4 [1]): 8.8 µM
IC50 (Cytochrome P450 3A4 [2]): 4.6 µM
IC50 (Cytochrome P450 1A2): 23 µM
Vd [3]: 0.4 L/kg
clearance [4]: 3.42 L/h/kg
clearance [5]: 0.33 L/h/kg
Vd [6]: 0.35 L/kg
half-life [9]: 1.6 h
EC50 (Bile acid receptor): 0.068 µM
XC50 [10]: > 10 µM
SMILES: CC(C)c1onc(-c2c(Cl)cccc2Cl)c1COc1ccc(-c2ccc3c(C(=O)O)cccc3c2)cc1
Activity (Rattus norvegicus [7]): Active
Activity (Rattus norvegicus [8]): Active
Activity (Rattus norvegicus [11]): Active
